Experimental data as given in PubChem BioAssay AID328 (DTP/NCI, 2004).
Where “and” joins values, the source holds several entries; their conditions need not be identical. Equal values may be shown once. Inconclusive results and toxic doses are left out.

Test system: BDF1 mice, P388 leukemia ip, median survival T/C
Experiment: NCI In Vivo Anticancer Drug Screen. Data for tumor model P388 Leukemia (intraperitoneal) in B6D2F1 (BDF1) mice
Conditions: endpoint: median survival time, higher = longer survival
In short: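 Mice carrying the transplantable tumour receive compound or vehicle. Survival is followed in each arm, and the treated measure is divided by the vehicle measure.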

[1] = dose: 100.0 mg/kg/injection, schedule: Q01DX009 (ip), vehicle: saline
[2] = dose: 200.0 mg/kg/injection, schedule: Q01DX009 (ip), vehicle: saline
[3] = dose: 100.0 mg/kg/injection, schedule: Q01DX009 (ip), vehicle: saline with Tween-80
[4] = dose: 200.0 mg/kg/injection, schedule: Q01DX009 (ip), vehicle: saline with Tween-80
[5] = dose: 50.0 mg/kg/injection, schedule: Q01DX009 (ip), vehicle: saline with Tween-80

## CCCCCCCCCCN(CCCCCCCCCC)C1CC(OC2CC(O)(C(C)=O)Cc3c(O)c4c(c(O)c32)C(=O)c2c(OC)cccc2C4=O)OC(C)C1O (configuration not stated)
dose: 37.5 mg/kg/injection, schedule: Q04DX003 (ip), vehicle: other
  T/C: 99 % of control
dose: 75.0 mg/kg/injection, schedule: Q04DX003 (ip), vehicle: other
  T/C: 103 % of control
dose: 150.0 mg/kg/injection, schedule: Q04DX003 (ip), vehicle: other
  T/C: 94 % of control
dose: 300.0 mg/kg/injection, schedule: Q04DX003 (ip), vehicle: other
  T/C: 99 % of control
dose: 400.0 mg/kg/injection, schedule: Q04DX003 (ip), vehicle: other
  T/C: 90 % of control

## C=C(C)C(=O)OC1CCCCC1
[1]
  T/C: 111 % of control
[2]
  T/C: 100 % of control
dose: 400.0 mg/kg/injection, schedule: Q01DX009 (ip), vehicle: saline
  T/C: 117 % of control

## COc1ccc2cc1Oc1ccc(cc1)CC1=NCCc3cc(OC)c(OC)c(c31)Oc1cc3c(cc1OC)CCN(C)C3C2 (configuration not stated)
dose: 67.0 mg/kg/injection, schedule: Q01DX010 (ip), vehicle: carboxymethylcellulose (CMC)
  T/C: 86 % of control
dose: 100.0 mg/kg/injection, schedule: Q01DX010 (ip), vehicle: carboxymethylcellulose (CMC)
  T/C: 86 % of control

## COS(=O)(=O)Oc1ccc2ccccc2c1
dose: 25.0 mg/kg/injection, schedule: Q01DX009 (ip), vehicle: Klucel (hydroxypropylcellulose) (HPC)
  T/C: 98 % of control
dose: 50.0 mg/kg/injection, schedule: Q01DX009 (ip), vehicle: Klucel (hydroxypropylcellulose) (HPC)
  T/C: 100 % of control
dose: 100.0 mg/kg/injection, schedule: Q01DX009 (ip), vehicle: Klucel (hydroxypropylcellulose) (HPC)
  T/C: 108 % of control

## COc1ccc(/C=C/c2ccc3ccccc3[n+]2C)cc1OC
dose: 18.75 mg/kg/injection, schedule: Q01DX009 (ip), vehicle: saline
  T/C: 150 % of control
dose: 37.5 mg/kg/injection, schedule: Q01DX009 (ip), vehicle: saline
  T/C: 160 % of control

## CCSCCSCC
[3]
  T/C: 107 % of control
dose: 100.0 mg/kg/injection, schedule: Q04DX003 (ip), vehicle: saline
  T/C: 120 % of control
[4]
  T/C: 103 % of control
dose: 200.0 mg/kg/injection, schedule: Q04DX003 (ip), vehicle: saline
  T/C: 115 % of control
dose: 400.0 mg/kg/injection, schedule: Q04DX003 (ip), vehicle: saline
  T/C: 120 % of control

## CC(CCC(C)OS(C)(=O)=O)OS(C)(=O)=O (configuration not stated)
dose: 2.0 mg/kg/injection, schedule: Q01DX010 (ip), vehicle: saline
  T/C: 100 % of control
dose: 4.0 mg/kg/injection, schedule: Q01DX010 (ip), vehicle: saline
  T/C: 95 % of control
dose: 8.0 mg/kg/injection, schedule: Q01DX010 (ip), vehicle: saline
  T/C: 118 % of control
dose: 16.0 mg/kg/injection, schedule: Q01DX010 (ip), vehicle: saline
  T/C: 122 % of control

## CC(=O)[O][Hg][c]1c(C)c(C)c(C)c(C)c1C
dose: 3.12 mg/kg/injection, schedule: Q01DX009 (ip), vehicle: Klucel (hydroxypropylcellulose) (HPC)
  T/C: 98 % of control
dose: 6.25 mg/kg/injection, schedule: Q01DX009 (ip), vehicle: Klucel (hydroxypropylcellulose) (HPC)
  T/C: 109 % of control
dose: 12.5 mg/kg/injection, schedule: Q01DX009 (ip), vehicle: Klucel (hydroxypropylcellulose) (HPC)
  T/C: 90 % of control and 107 % of control

## COc1cc2c(cc1OC)C(CN)C2 (configuration not stated)
dose: 50.0 mg/kg/injection, schedule: Q01DX009 (ip), vehicle: saline
  T/C: 98 % of control
[1]
  T/C: 96 % of control
[2]
  T/C: 98 % of control

## CC(=O)N(CC1CNc2nc(N)[nH]c(=O)c2N1C(=O)CCCCCCC(=O)N1c2c(nc(N)[nH]c2=O)NCC1CN(C(C)=O)c1ccc(C(=O)NC(CCC(=O)O)C(=O)O)cc1)c1ccc(C(=O)NC(CCC(=O)O)C(=O)O)cc1 (configuration not stated)
dose: 50.0 mg/kg/injection, schedule: Q04DX003 (ip), vehicle: sodium bicarbonate
  T/C: 103 % of control
dose: 100.0 mg/kg/injection, schedule: Q04DX003 (ip), vehicle: sodium bicarbonate
  T/C: 91 % of control
dose: 200.0 mg/kg/injection, schedule: Q04DX003 (ip), vehicle: sodium bicarbonate
  T/C: 112 % of control

## CSc1ncnc2c1ncn2CCCl
[5]
  T/C: 91 % of control
[3]
  T/C: 87 % of control
dose: 100.0 mg/kg/injection, schedule: Q04DX003 (ip), vehicle: saline with Tween-80
  T/C: 95 % of control
[4]
  T/C: 91 % of control
dose: 200.0 mg/kg/injection, schedule: Q04DX003 (ip), vehicle: saline with Tween-80
  T/C: 100 % of control

## O=[N+]([O-])c1ccc(NS(=O)(=O)c2cc(Cl)ccc2Cl)c([N+](=O)[O-])c1
[5]
  T/C: 105 % of control
[3]
  T/C: 102 % of control
[4]
  T/C: 110 % of control

## Cn1cc(NC(=O)c2cc(NC(=O)c3cc(NC=O)cn3C)cn2C)cc1C(=O)NCCC(=N)N
dose: 110.0 mg/kg/injection, schedule: Q04DX003 (ip), vehicle: Klucel (hydroxypropylcellulose) (HPC)
  T/C: 113 % of control
dose: 170.0 mg/kg/injection, schedule: Q04DX003 (ip), vehicle: Klucel (hydroxypropylcellulose) (HPC)
  T/C: 109 % of control
dose: 255.0 mg/kg/injection, schedule: Q04DX003 (ip), vehicle: Klucel (hydroxypropylcellulose) (HPC)
  T/C: 104 % of control

## S=P(S)(c1ccccc1)c1ccccc1
dose: 80.5 mg/kg/injection, schedule: Q01DX009 (ip), vehicle: saline
  T/C: 90 % of control
dose: 106.26 mg/kg/injection, schedule: Q01DX009 (ip), vehicle: saline
  T/C: 116 % of control
dose: 241.5 mg/kg/injection, schedule: Q01DX009 (ip), vehicle: saline
  T/C: 95 % of control
